According to the NIST ThermoML archive (doi:10.1021/je8000975):
Numbers after ± are expanded uncertainties.

Columns and labels:
[1] = Liquid; for speed of sound: Sing-around technique in a fixed-path interferometer
[2] = xn = mol fraction of the nth substance listed; conditions: 101 kPa, Liquid

COCCOCCO [2-(2-methoxyethoxy)ethanol]
mass density ([1]; 293.15 K): 1019.81 ± 1.3 kg/m3
speed of sound ([1]; 293.15 K): 1432.4 ± 2.1 m/s
mass density ([1]; 298.15 K): 1015.41 ± 1.3 kg/m3
speed of sound ([1]; 298.15 K): 1415.2 ± 2.1 m/s
mass density ([1]; 303.15 K): 1010.91 ± 1.2 kg/m3
speed of sound ([1]; 303.15 K): 1397.9 ± 2.1 m/s

COCCOCCO [2-(2-methoxyethoxy)ethanol] + COCCO
mass density ([2]; 293.15 K, x2 = 0.1005): 1016.02 ± 1 kg/m3
mass density ([2]; 293.15 K, x2 = 0.1489): 1014.09 ± 0.94 kg/m3
mass density ([2]; 293.15 K, x2 = 0.1983): 1012.06 ± 0.88 kg/m3
mass density ([2]; 293.15 K, x2 = 0.2003): 1011.98 ± 0.88 kg/m3
mass density ([2]; 293.15 K, x2 = 0.2517): 1009.77 ± 0.82 kg/m3
mass density ([2]; 293.15 K, x2 = 0.2969): 1007.77 ± 0.76 kg/m3
mass density ([2]; 293.15 K, x2 = 0.2993): 1007.67 ± 0.76 kg/m3
mass density ([2]; 293.15 K, x2 = 0.3475): 1005.45 ± 0.71 kg/m3
mass density ([2]; 293.15 K, x2 = 0.3505): 1005.31 ± 0.7 kg/m3
mass density ([2]; 293.15 K, x2 = 0.3985): 1003.01 ± 0.65 kg/m3
mass density ([2]; 293.15 K, x2 = 0.45): 1000.45 ± 0.6 kg/m3
mass density ([2]; 293.15 K, x2 = 0.5003): 997.85 ± 0.56 kg/m3
mass density ([2]; 293.15 K, x2 = 0.5998): 992.362 ± 0.51 kg/m3
mass density ([2]; 293.15 K, x2 = 0.6476): 989.566 ± 0.49 kg/m3
mass density ([2]; 293.15 K, x2 = 0.6993): 986.398 ± 0.47 kg/m3
mass density ([2]; 293.15 K, x2 = 0.7475): 983.311 ± 0.46 kg/m3
mass density ([2]; 293.15 K, x2 = 0.7485): 983.242 ± 0.46 kg/m3
mass density ([2]; 293.15 K, x2 = 0.7971): 979.992 ± 0.44 kg/m3
mass density ([2]; 293.15 K, x2 = 0.8465): 976.527 ± 0.43 kg/m3
mass density ([2]; 293.15 K, x2 = 0.8977): 972.767 ± 0.43 kg/m3
mass density ([2]; 293.15 K, x2 = 0.9483): 968.858 ± 0.42 kg/m3
mass density ([2]; 298.15 K, x2 = 0.0523): 1013.47 ± 1.1 kg/m3
mass density ([2]; 298.15 K, x2 = 0.1027): 1011.52 ± 0.98 kg/m3
mass density ([2]; 298.15 K, x2 = 0.1523): 1009.54 ± 0.92 kg/m3
mass density ([2]; 298.15 K, x2 = 0.1974): 1007.67 ± 0.86 kg/m3
mass density ([2]; 298.15 K, x2 = 0.2507): 1005.39 ± 0.8 kg/m3
mass density ([2]; 298.15 K, x2 = 0.294): 1003.47 ± 0.75 kg/m3
mass density ([2]; 298.15 K, x2 = 0.3472): 1001.02 ± 0.69 kg/m3
mass density ([2]; 298.15 K, x2 = 0.3976): 998.612 ± 0.64 kg/m3
mass density ([2]; 298.15 K, x2 = 0.4502): 995.991 ± 0.61 kg/m3
mass density ([2]; 298.15 K, x2 = 0.4981): 993.508 ± 0.58 kg/m3
mass density ([2]; 298.15 K, x2 = 0.5): 993.405 ± 0.57 kg/m3
mass density ([2]; 298.15 K, x2 = 0.5455): 990.948 ± 0.55 kg/m3
mass density ([2]; 298.15 K, x2 = 0.5989): 987.943 ± 0.52 kg/m3
mass density ([2]; 298.15 K, x2 = 0.6471): 985.114 ± 0.5 kg/m3
mass density ([2]; 298.15 K, x2 = 0.7005): 981.838 ± 0.48 kg/m3
mass density ([2]; 298.15 K, x2 = 0.749): 978.717 ± 0.47 kg/m3
mass density ([2]; 298.15 K, x2 = 0.7983): 975.395 ± 0.45 kg/m3
mass density ([2]; 298.15 K, x2 = 0.846): 972.046 ± 0.45 kg/m3
mass density ([2]; 298.15 K, x2 = 0.8832): 969.324 ± 0.44 kg/m3
mass density ([2]; 298.15 K, x2 = 0.8956): 968.391 ± 0.44 kg/m3
mass density ([2]; 298.15 K, x2 = 0.9483): 964.311 ± 0.43 kg/m3
mass density ([2]; 303.15 K, x2 = 0.0536): 1008.92 ± 1 kg/m3
mass density ([2]; 303.15 K, x2 = 0.1018): 1007.06 ± 0.97 kg/m3
mass density ([2]; 303.15 K, x2 = 0.15): 1005.13 ± 0.9 kg/m3
mass density ([2]; 303.15 K, x2 = 0.2011): 1003.02 ± 0.84 kg/m3
mass density ([2]; 303.15 K, x2 = 0.2499): 1000.92 ± 0.78 kg/m3
mass density ([2]; 303.15 K, x2 = 0.2515): 1000.85 ± 0.78 kg/m3
mass density ([2]; 303.15 K, x2 = 0.301): 998.636 ± 0.73 kg/m3
mass density ([2]; 303.15 K, x2 = 0.3527): 996.24 ± 0.69 kg/m3
mass density ([2]; 303.15 K, x2 = 0.3986): 994.036 ± 0.65 kg/m3
mass density ([2]; 303.15 K, x2 = 0.4493): 991.5 ± 0.62 kg/m3
mass density ([2]; 303.15 K, x2 = 0.5028): 988.711 ± 0.58 kg/m3
mass density ([2]; 303.15 K, x2 = 0.5499): 986.158 ± 0.56 kg/m3
mass density ([2]; 303.15 K, x2 = 0.6): 983.323 ± 0.53 kg/m3
mass density ([2]; 303.15 K, x2 = 0.6482): 980.488 ± 0.51 kg/m3
mass density ([2]; 303.15 K, x2 = 0.6941): 977.672 ± 0.49 kg/m3
mass density ([2]; 303.15 K, x2 = 0.7485): 974.182 ± 0.48 kg/m3
mass density ([2]; 303.15 K, x2 = 0.7979): 970.854 ± 0.47 kg/m3
mass density ([2]; 303.15 K, x2 = 0.8989): 963.546 ± 0.45 kg/m3
mass density ([2]; 303.15 K, x2 = 0.9476): 959.766 ± 0.45 kg/m3

CCCCOCCO [2-butoxyethan-1-ol]
mass density ([1]; 293.15 K): 900.094 ± 1.5 kg/m3
speed of sound ([1]; 293.15 K): 1322.5 ± 2.1 m/s
mass density ([1]; 298.15 K): 895.91 ± 1.5 kg/m3
speed of sound ([1]; 298.15 K): 1304.9 ± 2.1 m/s
mass density ([1]; 303.15 K): 891.697 ± 1.5 kg/m3
speed of sound ([1]; 303.15 K): 1288 ± 2.1 m/s

CCCCOCCO [2-butoxyethan-1-ol] + COCCO
mass density ([2]; 293.15 K, x2 = 0.0524): 902.021 ± 1.2 kg/m3
mass density ([2]; 293.15 K, x2 = 0.1023): 903.942 ± 1.1 kg/m3
mass density ([2]; 293.15 K, x2 = 0.1513): 905.929 ± 1.1 kg/m3
mass density ([2]; 293.15 K, x2 = 0.2009): 908.026 ± 1 kg/m3
mass density ([2]; 293.15 K, x2 = 0.2491): 910.172 ± 0.97 kg/m3
mass density ([2]; 293.15 K, x2 = 0.3006): 912.586 ± 0.92 kg/m3
mass density ([2]; 293.15 K, x2 = 0.3411): 914.561 ± 0.89 kg/m3
mass density ([2]; 293.15 K, x2 = 0.3986): 917.531 ± 0.84 kg/m3
mass density ([2]; 293.15 K, x2 = 0.4484): 920.249 ± 0.8 kg/m3
mass density ([2]; 293.15 K, x2 = 0.4994): 923.189 ± 0.75 kg/m3
mass density ([2]; 293.15 K, x2 = 0.5492): 926.262 ± 0.71 kg/m3
mass density ([2]; 293.15 K, x2 = 0.5987): 929.459 ± 0.68 kg/m3
mass density ([2]; 293.15 K, x2 = 0.6489): 932.911 ± 0.64 kg/m3
mass density ([2]; 293.15 K, x2 = 0.7291): 938.888 ± 0.58 kg/m3
mass density ([2]; 293.15 K, x2 = 0.7487): 940.45 ± 0.57 kg/m3
mass density ([2]; 293.15 K, x2 = 0.7996): 944.683 ± 0.53 kg/m3
mass density ([2]; 293.15 K, x2 = 0.8491): 949.097 ± 0.5 kg/m3
mass density ([2]; 293.15 K, x2 = 0.8992): 953.883 ± 0.47 kg/m3
mass density ([2]; 293.15 K, x2 = 0.9495): 959.058 ± 0.45 kg/m3
mass density ([2]; 298.15 K, x2 = 0.0522): 897.844 ± 1.2 kg/m3
mass density ([2]; 298.15 K, x2 = 0.1029): 899.781 ± 1.1 kg/m3
mass density ([2]; 298.15 K, x2 = 0.15): 901.679 ± 1.1 kg/m3
mass density ([2]; 298.15 K, x2 = 0.2019): 903.86 ± 1 kg/m3
mass density ([2]; 298.15 K, x2 = 0.2489): 905.939 ± 0.98 kg/m3
mass density ([2]; 298.15 K, x2 = 0.2999): 908.306 ± 0.93 kg/m3
mass density ([2]; 298.15 K, x2 = 0.3514): 910.818 ± 0.89 kg/m3
mass density ([2]; 298.15 K, x2 = 0.3994): 913.289 ± 0.85 kg/m3
mass density ([2]; 298.15 K, x2 = 0.449): 915.99 ± 0.81 kg/m3
mass density ([2]; 298.15 K, x2 = 0.4755): 917.493 ± 0.78 kg/m3
mass density ([2]; 298.15 K, x2 = 0.4987): 918.836 ± 0.77 kg/m3
mass density ([2]; 298.15 K, x2 = 0.5985): 925.072 ± 0.69 kg/m3
mass density ([2]; 298.15 K, x2 = 0.6476): 928.432 ± 0.65 kg/m3
mass density ([2]; 298.15 K, x2 = 0.6975): 932.045 ± 0.62 kg/m3
mass density ([2]; 298.15 K, x2 = 0.7481): 935.968 ± 0.58 kg/m3
mass density ([2]; 298.15 K, x2 = 0.7988): 940.157 ± 0.55 kg/m3
mass density ([2]; 298.15 K, x2 = 0.8476): 944.484 ± 0.52 kg/m3
mass density ([2]; 298.15 K, x2 = 0.8993): 949.386 ± 0.48 kg/m3
mass density ([2]; 298.15 K, x2 = 0.9478): 954.336 ± 0.46 kg/m3
mass density ([2]; 303.15 K, x2 = 0.0483): 893.466 ± 1.2 kg/m3
mass density ([2]; 303.15 K, x2 = 0.1002): 895.434 ± 1.1 kg/m3
mass density ([2]; 303.15 K, x2 = 0.1519): 897.493 ± 1.1 kg/m3
mass density ([2]; 303.15 K, x2 = 0.1997): 899.493 ± 1 kg/m3
mass density ([2]; 303.15 K, x2 = 0.2393): 901.221 ± 0.99 kg/m3
mass density ([2]; 303.15 K, x2 = 0.2476): 901.59 ± 0.99 kg/m3
mass density ([2]; 303.15 K, x2 = 0.3501): 906.436 ± 0.9 kg/m3
mass density ([2]; 303.15 K, x2 = 0.3985): 908.906 ± 0.86 kg/m3
mass density ([2]; 303.15 K, x2 = 0.4499): 911.682 ± 0.81 kg/m3
mass density ([2]; 303.15 K, x2 = 0.4966): 914.34 ± 0.78 kg/m3
mass density ([2]; 303.15 K, x2 = 0.5031): 914.737 ± 0.77 kg/m3
mass density ([2]; 303.15 K, x2 = 0.6119): 921.563 ± 0.69 kg/m3
mass density ([2]; 303.15 K, x2 = 0.6471): 923.963 ± 0.67 kg/m3
mass density ([2]; 303.15 K, x2 = 0.7275): 929.874 ± 0.61 kg/m3
mass density ([2]; 303.15 K, x2 = 0.7491): 931.575 ± 0.59 kg/m3
mass density ([2]; 303.15 K, x2 = 0.7969): 935.498 ± 0.56 kg/m3
mass density ([2]; 303.15 K, x2 = 0.8463): 939.82 ± 0.53 kg/m3
mass density ([2]; 303.15 K, x2 = 0.8986): 944.764 ± 0.5 kg/m3
mass density ([2]; 303.15 K, x2 = 0.9475): 949.713 ± 0.47 kg/m3
